Laboratory results reported in patent US8202885B2, “Bridged six-membered ring compounds” (Actelion Pharmaceuticals Ltd., priority 2007, dated 2012).

Tested on: human Cav3.1 Cav3.2 or Cav3.3 channel
Assay: In vitro assay T channel (FLIPR calcium fluorescence)
Assay type: cell-based
Conditions: HEK293 cells expressing human Cav3.1, Cav3.2 or Cav3.3; 10 mM Ca2+-induced fluo-4 fluorescence; determined up to 10 μM; read-out: T channel antagonistic activity IC50
Method: The T channel antagonistic activity (IC50 values) of the compounds of formula (I) is determined in accordance with the following experimental method and data are shown in Table 1.
Human embryonic kidney (HEK293) cells expressing the human Cav3.1 Cav3.2 or Cav3.3 channel, respectively, are grown in culture medium (DMEM containing 10% heat-inactivated fetal calf serum (FCS), 100 U/ml penicillin, 100 μg/ml streptomycin and 1 mg/ml G418). The cells are seeded at 20.000 cells/well into 384-well black clear bottom sterile plates (poly-L-lysine-coated, Becton Dickinson). The seeded plates are incubated overnight at 37° C. in 5% CO2. The Ca^2+ solution is prepared as 100 mM stock solution in 100 mM tetraethylammoniumchloride (TEA-chloride), 50 mM HEPES, 2.5 mM CaCl2, 5 mM KCl, 1 mM MgCl2, adjusted to pH 7.2 with TEA-hydroxide, for use in the assay at a final concentration of 10 mM. Antagonists are prepared as 10 mM stock solutions in DMSO, then diluted in 384 w plates first in DMSO, then in 100 mM TEA-chloride, 50 mM HEPES, 2.5 mM CaCl2, 5 mM KCl, 1 mM MgCl2, adjusted to pH 7.2 with TEA-hydroxide, to obtain 9× stocks. On the day of the assay, 25 μl of staining buffer (HBSS containing 20 mM HEPES, 0.375 g/l NaHCO3 and 3 μM of the fluorescent calcium indicator fluo-4 AM (1 mM stock solution in DMSO, containing 10% pluronic) is added to each well of the seeded plate. The 384-well cell-plates are incubated for 60 min at 37° C. in 5% CO2 followed by washing with 2×50 μl per well using HBSS containing 0.1% BSA, 20 mM HEPES, 0.375 g/l NaHCO3, leaving 50 […] of this buffer for equilibration at room temperature (30-60 min). Within the Fluorescent Imaging Plate Reader (FLIPR, Molecular Devices), antagonists are added to the plate in a volume of 6.25 μl/well, incubated for 3 min, and finally 6.25 […] of Ca^2+ solution is added. Fluorescence is measured for each well at 2 second intervals for 8 minutes, and the area under the curve of each fluorescence peak is compared to the area of the fluorescence peak induced by 10 mM Ca^2+ with vehicle in place of antagonist. For each antagonist, the IC50 value (the concentration (in nM) of compound needed to inhibit 50% of the Ca^2+-induced fluorescence response) up to 10 μM is determined.

IC50 [µM] | Compound
4.43 | COCC(C)(COC)C(=O)N(C)CCCN(C)CC[C@]1(OC(=O)C(C)C)C[C@H]2CC[C@@H]1C=C2c1ccccc1 (relative stereo) [Example 51A, rac-Isobutyric acid (1R*,2R*,4R*)-2-[2-({3-[(3-methoxy-2-methoxymethyl-2-methyl-propionyl)-methyl-amino]-propyl}-methyl-amino)-ethyl]-5-phenyl-bicyclo[2.2.2]oct-5-en-2-yl ester]
> 10 | CO[C@@]1(c2ccccc2)C[C@H]2CC[C@@H]1C[C@@]2(O)CCN(C)CCCc1nc2ccccc2[nH]1 (relative stereo) [Example 78, rac-(1R*,2R*,4R*,5S*)-2-(2-{[3-(1H-Benzoimidazol-2-yl)-propyl]-methyl-amino}-ethyl)-5-methoxy-5-phenyl-bicyclo[2.2.2]octan-2-ol]
1.14 | COc1cccc2[nH]c(CCCN(C)CCC3(OC(=O)C(C)C)CC4CCC3C=C4c3ccccc3)nc12 [Example 54A, Isobutyric acid (1R,2R,4R)-2-(2-{[3-(4-methoxy-1H-benzoimidazol-2-yl)-propyl]-methyl-amino}-ethyl)-5-phenyl-bicyclo[2.2.2]oct-5-en-2-yl ester or isobutyric acid (1S,2S,4S)-2-(2-{[3-(4-methoxy-1H-benzoimidazol-2-yl)-propyl]-methyl-amino}-ethyl)-5-phenyl-bicyclo[2.2.2]oct-5-en-2-yl ester]
2.56 | CN(CCCc1nc2cccc(O)c2[nH]1)CC[C@]1(O)C[C@H]2CC[C@@H]1C=C2c1ccccc1 (relative stereo) [Example 34, rac-(1R*,2R*,4R*)-2-(3-{[2-(2-Hydroxy-5-phenyl-bicyclo[2.2.2]oct-5-en-2-yl)-ethyl]-methyl-amino}-propyl)-3H-benzoimidazol-4-ol]
6.7 | CCOc1ccc(CCN(CC)CC[C@]2(O)C[C@H]3CC[C@@H]2C=C3c2ccccc2)cc1OCC (relative stereo) [Example 38, rac-(1R*,2R*,4R*)-2-(2-{[2-(3,4-Diethoxy-phenyl)-ethyl]-ethyl-amino}-ethyl)-5-phenyl-bicyclo[2.2.2]oct-5-en-2-ol]
0.906 | COCC(C)(COC)C(=O)N(C)CCCN(C)CC[C@@]1(OC(=O)C(C)C)C[C@H]2CC[C@@H]1C(c1ccccc1)=C2C (relative stereo) [Example 53C, rac-Isobutyric acid (1R*,2S*,4R*)-2-[2-({3-[(3-methoxy-2-methoxymethyl-2-methyl-propionyl)-methyl-amino]-propyl}-methyl-amino)-ethyl]-5-methyl-6-phenyl-bicyclo[2.2.2]oct-5-en-2-yl ester]
0.935 | COc1cccc2[nH]c(CCCN(C)CC[C@]3(OC(=O)OC(C)C)C[C@H]4CC[C@@H]3C=C4c3ccccc3)nc12 (relative stereo) [Example 26G, rac-Carbonic acid isopropyl ester (1R*,2R*,4R*)-2-(2-{[3-(4-methoxy-1H-benzoimidazol-2-yl)-propyl]-methyl-amino}-ethyl)-5-phenyl-bicyclo[2.2.2]oct-5-en-2-yl ester]
> 10 | CN(CCCc1nc2ccccc2[nH]1)CCC1(O)CC2CCC1C=C2c1ccccc1 (single isomer, unassigned) [Example 11, (1R,2R,4R)-2-(2-{[3-(1H-Benzoimidazol-2-yl)-propyl]-methyl-amino}-ethyl)-5-phenyl-bicyclo[2.2.2]oct-5-en-2-ol or (1S,2S,4S)-2-(2-{[3-(1H-benzoimidazol-2-yl)-propyl]-methyl-amino}-ethyl)-5-phenyl-bicyclo[2.2.2]oct-5-en-2-ol]
> 10 | CN(CCCc1cnc2ccccc2c1)CC[C@]1(O)C[C@H]2CC[C@@H]1C=C2c1ccccc1 (relative stereo) [Example 49, rac-(1R*,2R*,4R*)-2-{2-[Methyl-(3-quinolin-3-yl-propyl)-amino]-ethyl}-5-phenyl-bicyclo[2.2.2]oct-5-en-2-ol]
5.69 | CCCC1=C(C)[C@H]2CC[C@@H]1C[C@@]2(O)CCN(C)CCCc1nc2ccccc2[nH]1 (relative stereo) [Example 16, rac-(1R*,2R*,4R*)-2-(2-{[3-(1H-Benzoimidazol-2-yl)-propyl]-methyl-amino}-ethyl)-6-methyl-5-propyl-bicyclo[2.2.2]oct-5-en-2-ol]
> 10 | COCC(C)(COC)C(=O)N(C)CCCN(C)CC[C@]1(O)C[C@H]2CC[C@@H]1C=C2c1ccccc1 (relative stereo) [Example 51, rac-N-(3-{[2-((1R*,2R*,4R*)-2-Hydroxy-5-phenyl-bicyclo[2.2.2]oct-5-en-2-yl)-ethyl]-methyl-amino}-propyl)-3-methoxy-2-methoxymethyl-2,N-dimethyl-propionamide]
1.33 | CC(C)C(=O)O[C@@]1(CCN(C)CCCc2nc3cccc(O)c3[nH]2)C[C@H]2CC[C@@H]1C=C2c1ccccc1 (relative stereo) [Example 35A, rac-Isobutyric acid (1R*,2R*,4R*)-2-(2-{[3-(7-hydroxy-1H-benzoimidazol-2-yl)-propyl]-methyl-amino}-ethyl)-5-phenyl-bicyclo[2.2.2]oct-5-en-2-yl ester]
> 10 | CN(CCCc1ccnc2ccccc12)CC[C@]1(O)C[C@H]2CC[C@@H]1C=C2c1ccccc1 (relative stereo) [Example 50, rac-(1R*,2R*,4R*)-2-{2-[Methyl-(3-quinolin-4-yl-propyl)-amino]-ethyl}-5-phenyl-bicyclo[2.2.2]oct-5-en-2-ol]
> 10 | COCC(C)(COC)C(=O)NCCCN(C)CC[C@]1(O)C[C@H]2CC[C@@H]1C=C2c1ccccc1 (relative stereo) [Example 43, rac-N-(3-{[2-((1R*,2R*,4R*)-2-Hydroxy-5-phenyl-bicyclo[2.2.2]oct-5-en-2-yl)-ethyl]-methyl-amino}-propyl)-3-methoxy-2-methoxymethyl-2-methyl-propionamide]
1.63 | CC(C)C(=O)O[C@@]1(CCN(C)CCCc2nc3ccccc3[nH]2)C[C@H]2CC[C@@H]1C=C2c1ccc(F)cc1 (relative stereo) [Example 8A, rac-Isobutyric acid (1R*,2R*,4R*)-2-(2-{[3-(1H-benzoimidazol-2-yl)-propyl]-methyl-amino}-ethyl)-5-(4-fluoro-phenyl)-bicyclo[2.2.2]oct-5-en-2-yl ester]
0.55 | CC1=C(c2ccccc2)[C@H]2CC[C@@H]1C[C@@]2(CCN(C)CCCc1nc2ccccc2[nH]1)OC(=O)C(C)C (relative stereo) [Example 17C, rac-Isobutyric acid (1R*,2S*,4R*)-2-(2-{[3-(1H-benzoimidazol-2-yl)-propyl]-methyl-amino}-ethyl)-5-methyl-6-phenyl-bicyclo[2.2.2]oct-5-en-2-yl ester]
3.71 | CN(CCCc1nc2ccccc2[nH]1)CC[C@]1(O)C[C@H]2CC[C@@H]1C[C@]21OCc2ccccc21 (relative stereo) [Example 80, rac-(1R*,2S*,4R*,5R*)-5-(2-{[3-(1H-Benzoimidazol-2-yl)-propyl]-methyl-amino}-ethyl)-3′H-spiro(bicyclo[2.2.2]octane-2,1′-isobenzofuran)-5-ol]
6.07 | CN(CCCc1nc2ccccc2[nH]1)CC[C@@]1(O)C[C@@H]2CC[C@H]1CN2c1ccccc1 [Example 74, (1S,4S,5R)-5-(2-{[3-(1H-Benzoimidazol-2-yl)-propyl]-methyl-amino}-ethyl)-2-phenyl-2-aza-bicyclo[2.2.2]octan-5-ol]
> 10 | COC(C)(C)C(=O)NCCCN(C)CC[C@]1(OC(=O)C(C)C)C[C@H]2CC[C@@H]1C=C2c1ccccc1 (relative stereo) [Example 44A, rac-Isobutyric acid (1R*,2R*,4R*)-2-(2-{[3-(2-methoxy-2-methyl-propionylamino)-propyl]-methyl-amino}-ethyl)-5-phenyl-bicyclo[2.2.2]oct-5-en-2-yl ester]
0.688 | COCC(C)(COC)C(=O)N(C)CCCN(C)CC[C@]1(OC(=O)C(C)C)C[C@H]2CC[C@@H]1C(c1ccccc1)=C2C (relative stereo) [Example 53A, rac-Isobutyric acid (1R*,2R*,4R*)-2-[2-({3-[(3-methoxy-2-methoxymethyl-2-methyl-propionyl)-methyl-amino]-propyl}-methyl-amino)-ethyl]-5-methyl-6-phenyl-bicyclo[2.2.2]oct-5-en-2-yl ester]
